Like-named read-outs stand apart in the source and are kept apart here.
What was measured:
[1] = tested on: primary cultured neonatal microglia; assay: LPS induced NO release, Griess assay, laboratory scaled setup; assay type: cell-based, mouse; conditions: inhibitors of NO production, murine primary cultured neonatal microglia; for IC50: Mus musculus, Microglia;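 for active: compounds at or above the IC50 cutoff were called inactive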
Protocol: Primary cultured neonatal microglia. For preparation of cultured neonatal microglia, P0-P3 mice were used. 10 brains were extracted, meninges and cerebellum were removed and put on ice with Hank's balanced salt solution (HBSS). The dissected brains were washed 3 times before adding 400 μL trypsin (0.1 mg/L) and DNAse (5 μg/L) in phosphate buffered saline (PBS). After 2 min of incubation with this solution, the reaction was blocked by adding plain medium. After removal of the medium, 1 mg DNAse was added and the cells were mechanically dissociated, with a Pasteur pipette followed by a glass pipette. The cells were centrifuged for 10 min at 129 g at 4° C. The supernatant was discarded. The pellet was resuspended in plain medium and plated (2.5 brains/flask) in Poly-L-Lysine coated flasks. The cells were washed after 2 days with PBS and incubated for another 7 days in plain medium. Afterwards the medium was replaced by plain medium with 33% L929 conditioned medium. After 2 days, cells were harvested by shaking them for 30 min at 150 rpm. The supernatant was centrifuged for 10 min at 129 g at 4° C. The cells were plated into a 96 well plate (100 000 cells/well, 200 μL medium per well). This procedure could be repeated 2 times with a 2 day interval.
Griess assay. Cells were seeded according to the protocols described above, after compounds and stimuli were added, 100 μl of supernatant was transferred into a new 96 well plate and 100 μl freshly mixed Griess reagent were added. Griess reagent was composed of reagent A (100 mg Naphthylethylene in 50 ml aqua dest.) and reagent B (1 g Sulfanilamide, […] H3PO4 (85%) in 44 mL aqua dest.) mixed 1:1. The solution was carefully mixed and the absorbance was determined in a microplate reader at a wavelength of 550 nm.
Dissolved sodium nitrite in plain medium served as a standard. Total amount of nitrite was calculated by a linear regression of the standard curve.
The activity of the compounds listed in column 1 of Table 1 as inhibitors of NO production was compared in murine primary cultured neonatal microglia as described above.

iNOS = assay: NOS enzyme activity assay (Eurofins), iNOS; assay type: biochemical; conditions: C1: 1 μM up to 5 μM as printed; 30 min reaction
Protocol: (§1) In mammalians NO is produced by the three isoforms of NOS: iNOS, eNOS, and nNOS. To evaluate the direct influence of cl on the different isoforms of NOS, an enzyme activity assay was conducted by Eurofins. C1 was mixed with the enzyme buffer, which included co-factors and substrates and by adding the enzyme the reaction was initiated. After 30 min the reaction was stopped, and NO concentration was measured. The results are normalised to positive control performed without any additional compounds and are presented as percentage in inhibition. […] To test the compounds effect on iNOS a concentration range from […] 5 μM were applied ([…], 1, 10, 100 nM, 1, and 5 μM), and for testing eNOS and nNOS 1 nM and 1 μM were applied.

nNOS = assay: NOS enzyme activity assay (Eurofins), nNOS; assay type: biochemical; conditions: C1: 1 nM and 1 μM; 30 min reaction
Protocol: as §1

[2] = read-out: activity class (IC50)

| Structure (SMILES) | IC50 ([1]; read-out: IC50) | IC50 [1, 2] | IC50 ([1]; read-out: active) | enzymatic activity of iNOS (iNOS) | enzymatic activity of nNOS (nNOS) | active [1] |
| --- | --- | --- | --- | --- | --- | --- |
| COc1ccc([C@H](NC(=O)[C@@H]2CCCN2C(=O)OCc2ccccc2)C(=O)Nc2cccnc2)cc1 [Compound 49] |  |  | ≥ 10 µM |  |  |  |
| COc1ccc([C@H](NC(=O)[C@@H]2CCCN2C(=O)OCc2ccccc2)C(=O)Nc2ccc3c(c2)n(C)c(=O)n3C)cc1 [Compound 42, benzyl (S)-2-(((S)-2-((1,3-dimethyl-2-oxo-2,3-dihydro-1H-benzo[d]imidazol-5-yl)amino)-1-(4-methoxyphenyl)-2-oxoethyl)carbamoyl)pyrrolidine-1-carboxylate] |  |  | ≥ 10 µM |  |  |  |
| COc1ccc([C@H](NC(=O)[C@@H]2CCCN2C(=O)OCc2ccccc2)C(=O)Nc2cnc(C)s2)cc1 [Compound 26, benzyl (S)-2-(((S)-1-(4-methoxyphenyl)-2-((2-methylthiazol-5-yl)amino)-2-oxoethyl)carbamoyl)pyrrolidine-1-carboxylate] | 2.5 µM | < 10 µM |  |  |  | YES |
| COc1ccc(NC(=O)[C@@H](NC(=O)[C@@H]2Cc3ccccc3CN2C(=O)OCc2ccccc2)c2ccc(OC)cc2)cc1 [Compound 32, benzyl (S)-3-(((S)-1-(4-methoxyphenyl)-2-((4-methoxyphenyl)amino)-2-oxoethyl)carbamoyl)-3,4-dihydroisoquinoline-2(1H)-carboxylate] |  | < 10 µM |  |  |  | YES |
| COc1ccc(NC(=O)[C@@H](NC(=O)[C@@H]2CCCN2C(=O)c2ccccc2)c2ccc(OC)cc2)cc1 [Compound 24, (S)-1-benzoyl-N—((S)-1-(4-methoxyphenyl)-2-((4-methoxyphenyl)amino)-2-oxoethyl)pyrrolidine-2-carboxamide] | 1.1 µM | < 10 µM |  |  |  | YES |
| COc1ccc(NC(=O)[C@@H](NC(=O)[C@@H]2CCCN2C(=O)C2CCCCC2)c2ccc(OC)cc2)cc1 [Compound 23, (S)-1-(cyclohexanecarbonyl)-N—((S)-1-(4-methoxyphenyl)-2-((4-methoxyphenyl)amino)-2-oxoethyl)pyrrolidine-2-carboxamide] | 1.08 µM | < 10 µM |  |  |  | YES |
| COc1ccc(NC(=O)[C@@H](NC(=O)[C@@H]2C[C@@H](O)CN2C(=O)CCC2CCCCC2)c2ccc(OC)cc2)cc1 [Compound 53, (2S,4R)-1-(3-cyclohexylpropanoyl)-4-hydroxy-N—((S)-1-(4-methoxyphenyl)-2-((4-methoxyphenyl)amino)-2-oxoethyl)pyrrolidine-2-carboxamide] |  | < 1 µM |  |  |  | YES |
| COc1ccc(NC(=O)[C@@H](NC(=O)[C@@H]2C[C@@H]3CCCC[C@@H]3N2C(=O)OCc2ccccc2)c2ccc(OC)cc2)cc1 [Compound 31, benzyl(2S,3aS,7aS)-2-(((S)-1-(4-methoxyphenyl)-2-((4-methoxyphenyl)amino)-2-oxoethyl)carbamoyl)octahydro-1H-indole-1-carboxylate] |  | < 10 µM |  |  |  | YES |
| COc1ccc(NC(=O)[C@@H](NC(=O)[C@@H]2CCCN2C(=O)CC2CCCCC2)c2ccc(OC)cc2)cc1 [Compound 19, (S)-1-(2-cyclohexylacetyl)-N—((S)-1-(4-methoxyphenyl)-2-((4-methoxyphenyl)amino)-2-oxoethyl)pyrrolidine-2-carboxamide] | 0.208 µM | < 1 µM |  |  |  | YES |
| CC(=N)NCc1cccc(CN)c1 [W1400, reference compound] |  |  |  | reduce the enzyme activity as predicted |  |  |
| COc1ccc([C@H](NC(=O)[C@@H]2CCCN2C(=O)OCc2ccccc2)C(=O)Nc2ccccc2)cc1 [Compound 43, benzyl (S)-2-(((S)-1-(4-methoxyphenyl)-2-oxo-2-(phenylamino)ethyl)carbamoyl)pyrrolidine-1-carboxylate] |  |  | ≥ 10 µM |  |  |  |
| CSC(=N)N [S-Methylisothiourea, reference compound] |  |  |  |  | reduce the enzyme activity as predicted |  |

Continued, in another order:

| IC50 ([1]; read-out: IC50) | IC50 [1, 2] | IC50 ([1]; read-out: active) | enzymatic activity of iNOS (iNOS) | enzymatic activity of nNOS (nNOS) | Structure (SMILES) | active [1] |
| --- | --- | --- | --- | --- | --- | --- |
| 0.122 µM | < 0.2 µM |  |  |  | COc1ccc(NC(=O)[C@@H](NC(=O)[C@@H]2CCCN2C(=O)CCc2cccs2)c2ccc(OC)cc2)cc1 [Compound 16, (S)—N—((S)-1-(4-methoxyphenyl)-2-((4-methoxyphenyl)amino)-2-oxoethyl)-1-(3-(thiophen-2-yl)propanoyl)pyrrolidine-2-carboxamide] | YES |
| 0.122 µM | < 0.2 µM |  |  |  | COc1ccc(NC(=O)[C@@H](NC(=O)[C@@H]2CCCN2C(=O)OCc2ccccc2)c2ccccc2)cc1 [Compound 17, benzyl (S)-2-(((S)-2-((4-methoxyphenyl)amino)-2-oxo-1-phenylethyl)carbamoyl)pyrrolidine-1-carboxylate] | YES |
| 0.00837 µM | < 0.05 µM |  |  |  | COc1ccc(NC(=O)[C@@H](NC(=O)[C@@H]2CCCN2C(=O)CCC2CCCCC2)c2ccc(OCCOCCOCCOCCOCCOCCNC(=O)CCCC[C@@H]3SC[C@@H]4NC(=O)N[C@@H]43)cc2)cc1 [Compound 8, (S)-1-(3-cyclohexylpropanoyl)-N—((S)-2-((4-methoxyphenyl)amino)-2-oxo-1-(4-((19-oxo-23-((3aS,4S,6aR)-2-oxohexahydro-1H-thieno[3,4-d]imidazol-4-yl)-3,6,9,12,15-pentaoxa-18-azatricosyl)oxy)phenyl)ethyl)pyrrolidine-2-carboxamide] | YES |
| 0.151 µM | < 0.2 µM |  |  |  | COc1ccc(NC(=O)[C@@H](NC(=O)[C@@H]2CCCN2C(=O)CCc2ccccc2)c2ccc(OC)cc2)cc1 [Compound 13] | YES |
| 0.0204 µM | < 0.05 µM |  |  |  | COc1ccc(NC(=O)[C@@H](NC(=O)[C@@H]2CCCN2C(=O)CCC2CCCCC2)c2ccc(OC)cc2)cc1 [Compound 6, (S)-1-(3-cyclohexylpropanoyl)-N—((S)-1-(4-methoxyphenyl)-2-((4-methoxyphenyl)amino)-2-oxoethyl)pyrrolidine-2-carboxamide] | YES |
| 0.0449 µM | < 0.05 µM |  |  |  | COc1ccc(NC(=O)[C@@H](NC(=O)[C@@H]2CCCN2C(=O)CCCC2CCCCC2)c2ccc(OC)cc2)cc1 [Compound 7] | YES |
| 0.0655 µM | < 0.1 µM |  |  |  | COc1ccc([C@H](NC(=O)[C@@H]2CCCN2C(=O)OCc2ccccc2)C(=O)Nc2cc3n(n2)CCCC3)cc1 [Compound 10, benzyl(S)-2-(((S)-1-(4-methoxyphenyl)-2-oxo-2-((4,5,6,7-tetrahydropyrazolo[1,5-a]pyridin-2-yl)amino)ethyl)carbamoyl)pyrrolidine-1-carboxylate] | YES |
| 0.0717 µM | < 0.1 µM |  |  |  | COc1ccc(NC(=O)[C@@H](NC(=O)[C@@H]2CCCN2C(=O)COc2ccccc2)c2ccc(OC)cc2)cc1 [Compound 11, (S)—N—((S)-1-(4-methoxyphenyl)-2-((4-methoxyphenyl)amino)-2-oxoethyl)-1-(2-phenoxyacetyl)pyrrolidine-2-carboxamide] | YES |
